Laboratory results from patent publication US20260103479A1, “PRODRUGS OF OPICAPONE” (BIAL- PORTELA & CA, S.A., priority 2022, published 2026).
In brackets after ≈: the same amount, converted by molar mass. Read-outs that look alike come from different tables or passages of the source.

Experiments:
[1] = In vitro stability in rat liver S9 fraction; format: in vitro ADME; settings: 1 μM; S9 1 mg/mL; after 0.75 h
Protocol: (§1) The stability of 1 μM of compound 1 was assessed in the following fractions: phosphate buffer, human plasma, rat plasma, human liver S9 fraction, rat liver S9 fraction and rat liver homogenates.
(§2) Reaction was initiated by adding of 1 μM of test compound to the desired matrix (plasma, liver homogenate at 0.4 g/mL or S9 fraction at 1 mg/mL, respectively), with a final volume of 350 μL. At the following time points 0, 5, 15, 30, 45, 60 min, 50 μL of sample is taken and precipitated with 200 μL of acetonitrile 1% formic acid containing the internal standard (opicapone ^13C6) at 1 μM. Samples were centrifuged at 20,000 g at 4° C. for 10 min, and then analysed by LC-MS/MS using a bioanalytical method previously developed in-house.
(§3) The stability of 1 μM of compound 4 was assessed in the following fractions: phosphate buffer, human plasma, rat plasma, human liver S9 fraction, rat liver S9 fraction and rat liver homogenates.
Reaction was initiated by adding 1 μM of test compound to the desired matrix (plasma or S9 fraction at 1 mg/mL), with a final volume of 250 μL. […] Samples were centrifuged at 20,000 g at 4° C. for 10 min, and then analysed by LC-MS/MS using bioanalytical methods previously developed in-house. […]

[2] = In vitro stability / conversion to opicapone in rat liver homogenates; format: in vitro ADME; settings: 1 μM
Protocol: as §1, §2, §3
Reaction was initiated by adding 1 μM of test compound to the desired matrix (plasma or S9 fraction at 1 mg/mL), with a final volume of 250 μL. For plasma, at the time points of 0, 15, 30, 45 and 60 min of incubation, 50 μL of sample is taken and precipitated with 100 μL of internal standard working solution (ISWS) consisting of acetonitrile 1% formic acid containing the internal standard (opicapone ^13C6) at 1 μM. For S9 fraction, 50 μL of sample was taken and precipitated with 100 μL of ISWS after 60 min of incubation. For rat liver homogenates (0.2 g/mL of protein), reaction was initiated by adding of 1 μM of test compound with a final volume of 350 μL. At the following time points of 0, 5, 15, 30, 45, 60 min of incubation, 50 μL of sample is taken and precipitated with 200 μL ISWS. Samples were centrifuged at 20,000 g at 4° C. for 10 min, and then analysed by LC-MS/MS using bioanalytical methods previously developed in-house. Compound 4 was stable in all matrices with exception of rat liver homogenates, where the remaining compound was of approximately 31%, after 60 min of incubation. Solutions of the test compounds were prepared at 10 μM using 50 mM potassium phosphate buffer (KPB) at pH 7.4, by adding 1 μL of compound stock at 10 mM to 999 μL KPB 50 mM.

erythrocyte S-COMT = biological target: T1, erythrocyte S-COMT (Rattus norvegicus, UniProt P22734); assay: Subcutaneous pharmacodynamics: erythrocyte S-COMT activity (adrenaline to metanephrine); format: in vivo, male Wistar rats; settings: sc, s.c. 3 mg/kg
T1 construct: from tissue; host or cells: erythrocytes of male Wistar rats (haemolysate supernatant, 20 000 x g)
T1 sequence (P22734 1-221 isoform P22734-2): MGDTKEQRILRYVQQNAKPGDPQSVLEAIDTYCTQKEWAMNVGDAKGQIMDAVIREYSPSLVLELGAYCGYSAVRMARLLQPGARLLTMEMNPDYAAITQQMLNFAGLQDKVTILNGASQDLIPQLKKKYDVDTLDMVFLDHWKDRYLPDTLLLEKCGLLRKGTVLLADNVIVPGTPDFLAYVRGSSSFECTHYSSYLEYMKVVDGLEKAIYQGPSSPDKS
Protocol: The pharmacodynamic properties of compounds 1 and 4 compared to oral administered micronized crystalline opicapone were assessed by subcutaneous injection to 4 male Wistar rats (3 mg/kg; DMSO:20% HPBCD (1:9)) then measurement of erythrocyte S-COMT activity over time.
During the studies, blood was collected at different time points, from tail vein, spun at 1500×g in a refrigerated centrifuge (4° C.) for 15 min, and the plasma and erythrocytes obtained were stored at −80° C. until further analysis. The plasma samples collected were analysed for compound 1, compound 4 and opicapone exposure, as previously described
Erythrocyte S-COMT activity was evaluated by the ability to methylate adrenaline to metanephrine. Aliquots of erythrocytes were haemolyzed by addition of 4 volumes of ice-cold ultrapure water and homogenization in a bead mill homogenizer, using glass beads, followed by 10 minutes incubation on wet ice. After centrifugation (20 000×g, 20 minutes, 4° C.), the supernatant containing S-COMT was quantified for total protein using Bradford assay. Supernatants were diluted with water to 4 mg total protein per ml. 100 μL of these diluted supernatants were then pre-incubated in a 96-well plate for 20 min with 80 μL of phosphate buffer (10 mM, pH 7.8); thereafter, the reaction mixture was incubated for 10 min with adrenaline (10 mM; 20 μL) in the presence of a saturating concentration of S-adenosyl-L-methionine, the methyl donor (500 μM). The incubation medium also contained pargyline (100 μM), MgCl2, (100 μM) and EGTA (1 mM). The pre-incubation and incubation were carried out at 37° C., under conditions of light protection with continuous shaking and without oxygenation. At the end of the incubation period the plate was transferred to ice and the reaction was stopped by the addition of 15 μL of glacial acetic acid. 60 μL of each sample were then transferred to a new 96-well containing 400 μL of 0.1% formic acid, followed by plate centrifugation (2000×g, 5 minutes 4° C.). The supernatants were used for the quantification of metanephrine by LC-MS/MS.

physchem = settings: water, thermodynamic from solid
[3] = Long-term stability studies in the solid state; format: physicochemical
L-DOPA metabolism = assay: Subcutaneous pharmacodynamics: impact on L-DOPA and 3-OMD plasma levels; format: in vivo, male Wistar rats; settings: s.c. 3 mg/kg with 12 mg/kg L-DOPA plus 3 mg/kg benserazide vs without compound; rat
Protocol: As proof-of-concept, the effects of compound 4 on L-DOPA metabolism was evaluated in 4 male Wistar rats. Animals were subcutaneously injected with a single formulation (in DMSO:PEG 400:30% SBEBCD (1:2:2)) containing 12 mg/kg of L-DOPA plus 3 mg/kg of benserazide with or without 3 mg/kg of compound 4. Plasma samples were collected as described above and analyzed for levels of L-DOPA and its metabolite 3-O-methyldopa (3-OMD).

[4] = Aqueous solubility in distilled (pure) water at room temperature; settings: thermodynamic from solid
[5] = 2 h after dosing, read-out: maximal inhibition of COMT activity in erythrocytes
[6] = at least until 8 h post-dosing, read-out: inhibition of COMT maintained

remaining compound ([2]; rat liver homogenates 0.2 g/mL, after 60 min of incubation) | long-term stability in the solid state [3] | solubility [4] [µg/mL] | Compound | stability in rat liver S9 fraction [1] | conversion to opicapone in rat liver homogenates [2] | % remaining of the parent compound ([2]; rat liver homogenate 0.4 g/mL, after 0.5 h) | inhibition at 3 mg/kg (erythrocyte S-COMT; [5]) [%] | inhibition at 3 mg/kg (erythrocyte S-COMT; [6]) [%] | solubility (physchem) [µg/mL] | increase in the AUClast of circulating L-DOPA (L-DOPA metabolism) [fold] | levels of L-DOPA metabolite 3-OMD (L-DOPA metabolism)
– | – | – | Cc1c(Cl)c(C)[n+]([O-])c(Cl)c1-c1noc(-c2cc(OP(=O)(O)O)c(O)c([N+](=O)[O-])c2)n1 [Compound 1, 2,5-dichloro-3-(5-(4-hydroxy-3-nitro-5-(phosphonooxy)phenyl)-1,2,4-oxadiazol-3-yl)-4,6-dimethylpyridine 1-oxide] | stable | successfully converted to opicapone | less than 25% | 96 | > 80 | 6000 (≈ 12.2 mM) | – | –
approximately 31% | particularly stable | > 500 | Cc1c(Cl)c(C)[n+]([O-])c(Cl)c1-c1noc(-c2cc(OCOP(=O)(O)O)c(O)c([N+](=O)[O-])c2)n1 [Compound 4, 2,5-dichloro-3-(5-(4-hydroxy-3-nitro-5-((phosphonooxy)methoxy)phenyl)-1,2,4-oxadiazol-3-yl)-4,6-dimethylpyridine 1-oxide] | stable | successfully converted to opicapone | – | 94 | > 80 | – | 1.7 | decrease
